Results on 25 compounds are retold here after patent publication US20180162862A1 (President and Fellows of Harvard College, priority 2015, published 2018).

≈ marks a conversion by molar mass, not a printed value. Like-named read-outs stand apart in the source and are kept apart here.

Holding throughout (type): cell-based
The subject of one test is S. aureus ATCC 43300. In words: MIC test according to CLSI M7-A9, S. aureus ATCC 43300. To be noted: Staphylococcus aureus, ATCC43300; CLSI M7-A9, CAMHB, 24 h (Table 2); read-out: S. aureus ATCC 43300 MIC at 24 h. The protocol:
(§1) MIC Test (S. aureus ATCC 29213, S. aureus ATCC 43300 and S. aureus Newman)
(§2) Susceptibility testing of S. aureus ATCC 29213, ATCC 43300 and Newman was performed according to Clinical Laboratory Standard Institute (CLSI) guidelines M7-A9. Test articles were stored at room temperature prior to use, then dissolved in filtered sterile DMSO. Stock DMSO solutions were diluted further in cation-adjusted Mueller Hinton broth (CAMHB) to provide appropriate test concentrations. Cultures of S. aureus (ATCC 29213, ATCC 43300 or Newman) were added in accordance with CLSI guidelines and plates incubated at 37° C. in air for 24 h. Endpoints were determined visually (and by spectrophotometer at 600 nm) and the minimum inhibitory concentration (MIC) defined as the lowest concentration of test articles resulting in complete inhibition of visible bacterial growth. Results are detailed in Table 2 (S. aureus ATCC 29213 and ATCC 43300) and Table 3 (S. aureus ATCC 29213, ATCC 43300 and Newman).

The test system of the next test is S. aureus ATCC 29213. Description: MIC test according to CLSI M7-A9, S. aureus ATCC 29213. As to conditions: Staphylococcus aureus, ATCC29213, CLSI M7-A9, CAMHB. As to the method:
as §1, §2

The test system of a further test is S. aureus Newman. In words: MIC test according to CLSI M7-A9, S. aureus Newman. To be noted: Staphylococcus aureus, CLSI M7-A9, CAMHB, 24 h (Table 3), read-out: S. aureus ATCC Newman MIC. As to the method:
as §1, §2

[1] abbreviates: 24 h (Table 2), read-out: S. aureus ATCC 29213 MIC at 24 h.
Setting [2] is: 24 h (Table 3), read-out: S. aureus ATCC 29213 MIC.

With `CC(C)(C)c1ccc(-c2nc(NCC(O)CNC3CCCCC3)n3[nH]c(=O)cc3n2)cc1` (centres unmarked) [Example 61, 2-(4-tert-butylphenyl)-4-{[3-(cyclohexylamino)-2-hydroxypropyl]amino}-6H,7H-pyrazolo[1,5-a][1,3,5]triazin-7-one], the MIC in the test on S. aureus ATCC 43300 and with S. aureus ATCC 29213 (setting [1]) was 32 mg/L (≈ 73 µM) throughout.

On to `Cc1cc(N2CCC(Nc3nc(-c4ccc(C(C)(C)C)cc4)nc4cc(=O)[nH]n34)CC2)ccc1Cl` [Example 62, 2-(4-tert-butylphenyl)-4-{[1-(4-chloro-3-methylphenyl)piperidin-4-yl]amino}-6H,7H-pyrazolo[1,5-a][1,3,5]triazin-7-one], for which the MIC in the test with S. aureus ATCC 43300 is 16 mg/L (≈ 32.6 µM); in the test with S. aureus ATCC 29213 (setting [1]) it was 4 mg/L (≈ 8.15 µM).

Regarding `CC(C)(C)c1ccc(-c2nc(NC3CCN(C(=O)c4ccccc4)CC3)n3[nH]c(=O)cc3n2)cc1` [Example 63, 4-[(1-benzoylpiperidin-4-yl)amino]-2-(4-tert-butylphenyl)-6H,7H-pyrazolo[1,5-a][1,3,5]triazin-7-one], the results for the MIC with S. aureus ATCC 43300 and with S. aureus ATCC 29213 (setting [1]) were 128 mg/L (≈ 272 µM) and 32 mg/L (≈ 68 µM), respectively.

With `CC(C)(C)c1ccc(-c2nc(NC3CCN(C(=O)c4nnc[nH]4)CC3)n3[nH]c(=O)cc3n2)cc1` [Example 64, 2-(4-tert-butylphenyl)-4-{[11-(4H-1,2,4-triazole-3-carbonyl)piperidin-4-yl]amino}-6H,7H-pyrazolo[1,5-a][1,3,5]triazin-7-one], the MIC in the test on S. aureus ATCC 43300 is greater than 128 mg/L; in the test with S. aureus ATCC 29213 (setting [1]), 128 mg/L (≈ 277 µM).

Consider `Cc1cc(OCCC(C)Nc2nc(-c3ccc(C(C)(C)C)cc3)nc3cc(=O)[nH]n23)ccc1Cl` (centres unmarked) [Example 65, 2-(4-tert-butylphenyl)-4-{[4-(4-chloro-3-methylphenoxy)butan-2-yl]amino}-6H,7H-pyrazolo[1,5-a][1,3,5]triazin-7-one], for which the MIC with S. aureus ATCC 43300 and with S. aureus ATCC 29213 (setting [1]) was 4 mg/L (≈ 8.33 µM) in each case.

For the compound `Cc1cc(NCC(F)CNc2nc(-c3ccc(C(C)(C)C)cc3)nc3cc(=O)[nH]n23)ccc1Cl` (centres unmarked) [Example 66, 2-(4-tert-butylphenyl)-4-({3-[(4-chloro-3-methylphenyl)amino]-2-fluoropropyl}amino)-6H,7H-pyrazolo[1,5-a][1,3,5]triazin-7-one], the figures for the MIC in the test on S. aureus ATCC 43300 and in the test with S. aureus ATCC 29213 (setting [1]) were 2 mg/L (≈ 4.14 µM) and 4 mg/L (≈ 8.28 µM), respectively.

Regarding `Cc1ccc(-c2nc(NCCCOc3ccc(Cl)c(C)c3)n3[nH]c(=O)cc3n2)cc1` [Example 67, 4-{[3-(4-chloro-3-methylphenoxy)propyl]amino}-2-(4-methylphenyl)-6H,7H-pyrazolo[1,5-a][1,3,5]triazin-7-one], the MIC with S. aureus ATCC 43300 and with S. aureus ATCC 29213 (setting [1]) was greater than 64 mg/L throughout.

As to `Cc1ccc(-c2nc(NC3CCN(Cc4ccccc4)CC3)n3[nH]c(=O)cc3n2)cc1` [Example 69, 4-[(1-benzylpiperidin-4-yl)amino]-2-(4-methylphenyl)-6H,7H-pyrazolo[1,5-a][1,3,5]triazin-7-one], the minimum inhibitory concentration (MIC) in the test on S. aureus ATCC 43300 was greater than 32 mg/L; in the test with S. aureus ATCC 29213 (setting [1]), 32 mg/L (≈ 77.2 µM).

For `Cc1cc(OCCCNc2nc(-c3ccc(C(C)(C)C)cc3)nc3c(F)c(=O)[nH]n23)ccc1Cl` [Example 71, 2-(4-tert-butylphenyl)-4-{[3-(4-chloro-3-methylphenoxy)propyl]amino}-8-fluoro-6H,7H-pyrazolo[1,5-a][1,3,5]triazin-7-one], the MIC with S. aureus ATCC 43300 and with S. aureus ATCC 29213 (setting [1]) was 8 mg/L (≈ 16.5 µM) in each case.

In the case of `CC(C)(C)c1ccc(-c2nc(NCCCN3CCCc4ccccc43)n3[nH]c(=O)cc3n2)cc1` [Example 76, 2-(4-tert-butylphenyl)-4-{[3-(1,2,3,4-tetrahydroquinolin-1-yl)propyl]amino}-6H,7H-pyrazolo[1,5-a][1,3,5]triazin-7-one], the MIC in the test on S. aureus ATCC 29213 (setting [2]) and with S. aureus Newman was 4 mg/L (≈ 8.76 µM) each time.

As for `CC(C)(C)c1ccc(-c2nc(N3CCN(CCO)CC3)n3[nH]c(=O)cc3n2)cc1` [Example 77, 2-(4-tert-butylphenyl)-4-[4-(2-hydroxyethyl)piperazin-1-yl]-6H,7H-pyrazolo[1,5-a][1,3,5]triazin-7-one], the MIC in the test with S. aureus ATCC 29213 (setting [2]) and with S. aureus Newman was 64 mg/L (≈ 161 µM) each time.

Turning to `CCCCN(CCCC)CCCNc1nc(-c2ccc(C(C)(C)C)cc2)nc2cc(=O)[nH]n12` [Example 78, 2-(4-tert-butylphenyl)-4-{[3-(dibutylamino)propyl]amino}-6H,7H-pyrazolo[1,5-a][1,3,5]triazin-7-one], the MIC in the test with S. aureus ATCC 29213 (setting [2]) and with S. aureus Newman was 32 mg/L (≈ 70.7 µM) throughout.

`CC(C)(C)c1ccc(-c2nc(NCC3CN(Cc4ccccc4)CCO3)n3[nH]c(=O)cc3n2)cc1` (centres unmarked) [Example 79, 4-{[(4-benzylmorpholin-2-yl)methyl]amino}-2-(4-tert-butylphenyl)-6H,7H-pyrazolo[1,5-a][1,3,5]triazin-7-one]: the MIC in the test with S. aureus ATCC 29213 (setting [2]) stood at 32 mg/L (≈ 67.7 µM); in the test on S. aureus Newman, 16 mg/L (≈ 33.9 µM).

Turning to `CC(C)(C)c1ccc(-c2nc(NCc3ccc(C#N)cc3)n3[nH]c(=O)cc3n2)cc1` [Example 84, 4-({[2-(4-tert-butylphenyl)-7-oxo-6H,7H-pyrazolo[1,5-a][1,3,5]triazin-4-yl]amino}methyl)benzonitrile], the MIC with S. aureus ATCC 29213 (setting [2]) stood at 16 mg/L (≈ 40.2 µM); in the test on S. aureus Newman, 8 mg/L (≈ 20.1 µM).

Take `Cc1cc(OCCCN(CCCN(C)C)c2nc(-c3ccc(C(C)(C)C)cc3)nc3cc(=O)[nH]n23)ccc1Cl` [Example 86, 2-(4-tert-butylphenyl)-4-{[3-(4-chloro-3-methylphenoxy)propyl][3-(dimethylamino)propyl]amino}-6H,7H-pyrazolo[1,5-a][1,3,5]triazin-7-one]: the MIC turned out to be 2 mg/L (≈ 3.63 µM) in the test on S. aureus ATCC 29213 (setting [2]) and 1 mg/L (≈ 1.81 µM) in the test on S. aureus Newman.

As to `CC(C)(C)c1ccc(-c2nc(NCC(=O)NC3Cc4ccccc4C3)n3[nH]c(=O)cc3n2)cc1` [Example 88, 2-{[2-(4-tert-butylphenyl)-7-oxo-6H,7H-pyrazolo[1,5-a][1,3,5]triazin-4-yl]amino}-N-(2,3-dihydro-1H-inden-2-yl)acetamide], the MIC with S. aureus ATCC 29213 (setting [2]) was greater than 128 mg/L; with S. aureus Newman, 128 mg/L (≈ 280 µM).

As to `CC(C)(C)c1ccc(-c2nc(NCC(F)(F)CNC3Cc4ccccc4C3)n3[nH]c(=O)cc3n2)cc1` [Example 89, 2-(4-tert-Butylphenyl)-4-({3-[(2,3-dihydro-1H-inden-2-yl)amino]-2,2-difluoropropyl}amino)-6H,7H-pyrazolo[1,5-a][1,3,5]triazin-7-one], the MIC in the test with S. aureus ATCC 29213 (setting [2]) and in the test with S. aureus Newman was 8 mg/L (≈ 16.2 µM) in each case.

As for `CC(C)(C)c1ccc(-c2nc(NCCCN3CCc4ccccc4C3)n3[nH]c(=O)cc3n2)cc1` [Example 91, 2-(4-tert-butylphenyl)-4-{[3-(1,2,3,4-tetrahydroisoquinolin-2-yl)propyl]amino}-6H,7H-pyrazolo[1,5-a][1,3,5]triazin-7-one], the MIC was 32 mg/L (≈ 70.1 µM) in the test with S. aureus ATCC 29213 (setting [2]) and 16 mg/L (≈ 35 µM) with S. aureus Newman.

Consider `CC(C)(C)c1nc(NCCCNC2Cc3ccccc3C2)n2[nH]c(=O)cc2n1` [Example 95, 2-tert-butyl-4-({3-[(2,3-dihydro-1H-inden-2-yl)amino]propyl}amino)-6H,7H-pyrazolo[1,5-a][1,3,5]triazin-7-one], for which the MIC with S. aureus ATCC 29213 (setting [2]) came out at 16 mg/L (≈ 42.1 µM); with S. aureus Newman, 8 mg/L (≈ 21 µM).

Turning to `CCCCNc1nc(C(C)(C)C)nc2cc(=O)[nH]n12` [Example 96, 2-tert-butyl-4-(butylamino)-6H,7H-pyrazolo[1,5-a][1,3,5]triazin-7-one], the MIC with S. aureus ATCC 29213 (setting [2]) was found to be 128 mg/L (≈ 486 µM); with S. aureus Newman, 32 mg/L (≈ 122 µM).

Turning to `CC(C)(C)c1nc(NCCCN2CCc3ccccc3C2)n2[nH]c(=O)cc2n1` [Example 97, 2-tert-butyl-4-{[3-(1,2,3,4-tetrahydroisoquinolin-2-yl)propyl]amino}-6H,7H-pyrazolo[1,5-a][1,3,5]triazin-7-one], the MIC in the test on S. aureus ATCC 29213 (setting [2]) came to 128 mg/L (≈ 336 µM); with S. aureus Newman it was 64 mg/L (≈ 168 µM).

Take `CN(CCCNc1nc(-c2ccc(C(C)(C)C)cc2)nc2cc(=O)[nH]n12)Cc1ccccc1` [Example 98, 4-({3-[benzyl(methyl)amino]propyl}amino)-2-(4-tert-butylphenyl)-6H,7H-pyrazolo[1,5-a][1,3,5]triazin-7-one]: the MIC in the test with S. aureus ATCC 29213 (setting [2]) and with S. aureus Newman was 32 mg/L (≈ 72 µM) throughout.

As for `O=c1cc2nc(C34CC5CC(CC(C5)C3)C4)nc(NCCCN3CCc4ccccc4C3)n2[nH]1` [Example 102, 2-(adamantan-1-yl)-4-{[3-(1,2,3,4-tetrahydroisoquinolin-2-yl)propyl]amino}-6H,7H-pyrazolo[1,5-a][1,3,5]triazin-7-one], the MIC in the test on S. aureus ATCC 29213 (setting [2]) is 64 mg/L (≈ 140 µM); in the test on S. aureus Newman it was 16 mg/L (≈ 34.9 µM).

Consider `CC(C)(C)c1ccc(-c2nc(NCCCNC3Cc4ccccc4C3)n3[nH]c(=O)c(Cc4ccccc4)c3n2)cc1` [Example 108, 8-benzyl-2-(4-tert-butylphenyl)-4-({3-[(2,3-dihydro-1H-inden-2-yl)amino]propyl}amino)-6H,7H-pyrazolo[1,5-a][1,3,5]triazin-7-one], for which the figures for the MIC in the test on S. aureus ATCC 29213 (setting [2]) and in the test on S. aureus Newman were 0.5 mg/L (≈ 0.915 µM) and 2 mg/L (≈ 3.66 µM), respectively.

On to `CC(C)(C)c1ccc(-c2nc(NCCCNC3Cc4ccccc4C3)n3[nH]c(=O)c(Cc4c[nH]cn4)c3n2)cc1` [Example 109, 2-(4-tert-butylphenyl)-4-({3-[(2,3-dihydro-1H-inden-2-yl)amino]propyl}amino)-8-(1H-imidazol-4-ylmethyl)-6H,7H-pyrazolo[1,5-a][1,3,5]triazin-7-one], for which the MIC is 4 mg/L (≈ 7.45 µM) in the test on S. aureus ATCC 29213 (setting [2]) and 1 mg/L (≈ 1.86 µM) in the test with S. aureus Newman.
